Reference: PMC6010082, “Synthesis and in vitro antiproliferative and antibacterial activity of new thiazolidine-2,4-dione derivatives” (Journal of Enzyme Inhibition and Medicinal Chemistry, 2017)
≈ marks a conversion by molar mass, not a printed value.

Legend:
[1] = test system: Staphylococcus aureus ATCC 25923; test: Broth microdilution MIC, S. aureus ATCC 25923; type: cell-based; conditions: 35 °C; for MIC: Staphylococcus aureus, ATCC25923, 18 h, read-out: Minimal inhibitory concentration MIC, Staphylococcus aureus 25923
Experimental: (§1) Newly synthesised compounds’ antibacterial activities were tested in vitro against six aerobic bacteria reference strains: three Gram-positive (Staphylococcus aureus ATCC 25923, methicillin-resistant S. aureus MIKROBANK 14.001 reference strain from National Medicines Institute in Warsaw, and Staphylococcus epidermidis ATCC 12228) and three Gram-negative (Escherichia coli ATCC 25922, Proteus mirabilis ATCC 12453, and Pseudomonas aeruginosa ATCC 9027).
(§2) Bacterial cell suspensions equivalent to 0.5 McFarland (1.5 × 10^8 CFU/ml) were prepared in 0.85% sterile saline. Tested compounds’ stock solutions (50 mg/ml) were dissolved in dimethyl sulphoxide (DMSO).
(§3) Bacteria strain susceptibility to tested agents was determined by broth microdilution method. Broth microdilution method was carried out in accordance with Clinical and Laboratory Standards Institute recommendations and was used as reference method. Mueller–Hinton broth containing two-fold dilutions of the tested substances (at concentrations ranging from 3.91 to 1000 µg/ml) was used to determine their minimal inhibitory concentration (MIC) which is the lowest concentration of an antibacterial that will inhibit the visible growth of a microorganism after 18 h of incubation). Mueller–Hinton broth is recommended as the medium of choice for susceptibility testing of commonly isolated, rapidly growing aerobic, or facultative organisms. Gentamicin (KRKA, Slovenia), an aminoglycoside antibiotic active against a wide range of human bacterial infections, mostly Gram-negative bacteria including Pseudomonas, Proteus, Serratia, and the Gram-positive Staphylococcus, was used as a control antibacterial agent (at concentration from 0.12 µg to 1000 µg).
(§4) Tested compounds two-fold dilutions in Mueller–Hinton broth without bacteria were blank control wells (incubated on equal conditions). Polystyrene trays containing 96 wells were filled with serial two-fold Mueller–Hinton broth dilutions of tested agents. Next, the broth was inoculated with 20 μl of 0.5 McFarland microbial suspension (previously diluted 1:10 by Mueller–Hinton broth). Total volume per each well was 200 μl. After incubation (at 35 °C for 18 h), bacterial cultures’ optical density was measured by microplate reader (BioTek Synergy H4 Hybrid Reader) at 600 nm. The MIC values were determined by the comparison of broth bacterial culture OD600 containing tested concentrations of examined substances to blank control wells.

[2] = test system: methicillin-resistant S. aureus MIKROBANK 14.001; test: Broth microdilution MIC, methicillin-resistant S. aureus; type: cell-based, Staphylococcus aureus; conditions: methicillin-resistant strain, 18 h, 35 °C; for MIC: Staphylococcus aureus, read-out: Minimal inhibitory concentration MIC, Staphylococcus aureus MIKROBANK 14.001
Experimental: as §1, §2, §3, §4

[3] = test system: Staphylococcus epidermidis ATCC 12228; test: Broth microdilution MIC, S. epidermidis ATCC 12228; type: cell-based; conditions: 35 °C; for MIC: Staphylococcus epidermidis, ATCC12228, 18 h, read-out: Minimal inhibitory concentration MIC, Staphylococcus epidermidis 12228
Experimental: as §1, §2, §3, §4

[4] = test system: human breast adenocarcinoma (MCF-7); test: MTT antiproliferative assay, MCF-7 cells; type: cell-based; conditions: for IC50: Homo sapiens, MCF7, MCF-7 cells, MTT, 48 h exposure, read-out: IC50 [µg/ml] ± SEM, MCF-7; for SI [IC50BJ/IC50], MCF-7: safety index = IC50 normal cells (BJ)/IC50 MCF-7
Experimental: (§5) The experiment was carried out using normal human skin fibroblasts (BJ) and tumour cell lines: human lung carcinoma (A549), human hepatocellular carcinoma (HepG2), and human breast adenocarcinoma (MCF-7). All cell lines were obtained from ATCC (American Type Culture Collection, England, UK) and cultured in the appropriate, recommended by ATCC, culture medium, additionally supplemented with 10% foetal bovine serum and antibiotics: 100 U/ml penicillin and 100 µg/ml streptomycin. The cells were maintained at 37 °C in a humidified atmosphere of 5% CO2 and 95% air. Antiproliferative activity of the new compounds was assessed by, commonly used for this purpose, colorimetric MTT assay. Cells with active mitochondrial dehydrogenases reduced intracellularly the tetrazolium dye into purple formazan, which is proportional to the number of viable cells. The cells were seeded in 96-multiwell plates in 100 μl of the appropriate complete culture medium at a concentration of 7 × 10^3 cells/well in the case of BJ cells (normal fibroblasts), 1 × 10^4 cells/well in the case of A549 cells (lung cancer), 1.5 × 10^4 cells/well in the case of HepG2 cells (liver cancer), and 2 × 10^4 cells/well in the case of MCF-7 cells (breast cancer) so as to obtain 60–70% confluent culture after 24 h of incubation at 37 °C – the cells are then in the log (logarithmic) phase, during a period of active proliferation, but still have an unoccupied space to divide. Afterwards, the culture medium was discarded and replaced with 100 µl of different concentrations of new tested compounds and reference antiproliferative agent: irinotecan. The stock solutions of the compounds were prepared in DMSO, and solvent control was being tested concurrently to exclude toxicity attributed to DMSO. Ten serial two-fold dilutions using culture medium were performed to prepare different concentrations of the tested compounds, and the highest tested concentration was 200 µg/ml. Untreated cells (maintained in the complete culture medium) served as a negative control. After exposing cells for 48 h to the tested derivatives, the MTT assay was performed as described earlier. Three independent experiments (n = 3) were performed in a quadruplicate. The obtained data were analysed using GraphPad Prism 5, version 5.03 software (La Jolla, CA). […] Moreover, safety index (SI) was calculated using the following formula: SI=IC50normal cells (BJ)/IC50cancer cells

[5] = test system: normal human skin fibroblasts (BJ); test: MTT assay, normal fibroblasts BJ; type: cell-based; conditions: Skin fibroblast, 48 h exposure, read-out: IC50 [µg/ml] ± SEM, BJ
Experimental: as §5

[6] = test system: human hepatocellular carcinoma (HepG2); test: MTT antiproliferative assay, HepG2 cells; type: cell-based; conditions: for IC50: Homo sapiens, HepG2 cells, MTT, 48 h exposure, read-out: IC50 [µg/ml] ± SEM, HepG2; for SI [IC50BJ/IC50], HepG2: safety index = IC50 normal cells (BJ)/IC50 HepG2
Experimental: as §5

[7] = test system: human lung carcinoma (A549); test: MTT antiproliferative assay, A549 cells; type: cell-based; conditions: for IC50: Homo sapiens, A549 cells, MTT, 48 h exposure, read-out: IC50 [µg/ml] ± SEM, A549; for SI [IC50BJ/IC50], A549: safety index = IC50 normal cells (BJ)/IC50 A549
Experimental: as §5

SMILES	MIC [1] [µg/mL]	MIC [2] [µg/mL]	MIC [3] [µg/mL]	melting point [°C]	IC50 [5] [µg/mL]	also measured
O=C(CC1SC(=O)NC1=O)Oc1cccc(C=NNC(=O)c2cccc(Cl)c2)c1 (stereo not drawn) [Compound 12, 3-{[2-(3-Chlorobenzoyl)hydrazinylidene]methyl}phenyl (2,4-dioxo-1,3-thiazolidin-5-yl)acetate]	500	500	500	244 to 245		
O=C(CC1SC(=O)NC1=O)Oc1cccc(C=NNC(=O)c2ccc(Cl)cc2Cl)c1 (stereo not drawn) [Compound 13, 3-{[2-(2,4-Dichlorobenzoyl)hydrazinylidene]methyl}phenyl (2,4-dioxo-1,3-thiazolidin-5-yl)acetate]	500	500	500	198 to 200		
O=C(CC1SC(=O)NC1=O)Oc1ccc(C=NNC(=O)c2cccc(Cl)c2)cc1 (stereo not drawn) [Compound 14, 4-{[2-(3-Chlorobenzoyl)hydrazinylidene]methyl}phenyl (2,4-dioxo-1,3-thiazolidin-5-yl)acetate]				215 to 216		
O=C(CC1SC(=O)NC1=O)Oc1ccc(C=NNC(=O)c2ccc(Cl)cc2Cl)cc1 (stereo not drawn) [Compound 15, 4-{[2-(2,4-Dichlorobenzoyl)hydrazinylidene]methyl}phenyl (2,4-dioxo-1,3-thiazolidin-5-yl)acetate]	500	500	500	196 to 198		
COc1cc(C=NNC(=O)c2cccc(Cl)c2)ccc1OC(=O)CC1SC(=O)NC1=O (stereo not drawn) [Compound 16, 4-{[2-(3-Chlorobenzoyl)hydrazinylidene]methyl}-2-methoxyphenyl (2,4-dioxo-1,3-thiazolidin-5-yl)acetate]				220 to 222	163.3 ± 1.34 (≈ 354 µM)	IC50 [4]: 117 ± 1.23 µg/mL (≈ 254 µM); SI [IC50BJ/IC50], MCF-7 [4]: 1.39
COc1cc(C=NNC(=O)c2ccc(Cl)cc2Cl)ccc1OC(=O)CC1SC(=O)NC1=O (stereo not drawn) [Compound 17, 4-{[2-(2,4-Dichlorobenzoyl)hydrazinylidene]methyl}-2-methoxyphenyl (2,4-dioxo-1,3-thiazolidin-5-yl)acetate]	250	250	500	186 to 188		
O=C(C=C1SC(=O)NC1=O)Oc1cccc(C=NNC(=O)c2cccc(Cl)c2)c1 [Compound 19, 3-{[2-(3-Chlorobenzoyl)hydrazinylidene]methyl}phenyl (2,4-dioxo-1,3-thiazolidin-5-ylidene)acetate]				282 to 283		
O=C(C=C1SC(=O)NC1=O)Oc1ccc(C=NNC(=O)c2cccc(Cl)c2)cc1 [Compound 20, 4-{[2-(3-Chlorobenzoyl)hydrazinylidene]methyl}phenyl (2,4-dioxo-1,3-thiazolidin-5-ylidene)acetate]				278 to 279	11.3 ± 1.05 (≈ 26.4 µM)	IC50 [6]: 27 ± 1.02 µg/mL (≈ 62.7 µM); SI [IC50BJ/IC50], HepG2 [6]: 0.42
COc1cc(C=NNC(=O)c2cccc(Cl)c2)ccc1OC(=O)C=C1SC(=O)NC1=O [Compound 21, 4-{[2-(3-Chlorobenzoyl)hydrazinylidene]methyl}-2-methoxyphenyl (2,4-dioxo-1,3-thiazolidin-5-ylidene)acetate]				246 to 248	31.4 ± 1.08 (≈ 68.3 µM)	IC50 [6]: 48.4 ± 1.02 µg/mL (≈ 105 µM); SI [IC50BJ/IC50], HepG2 [6]: 0.65; IC50 [4]: 124 ± 1.63 µg/mL (≈ 270 µM); SI [IC50BJ/IC50], MCF-7 [4]: 0.25
O=C(CC1SC(=O)NC1=O)Oc1cccc(C=NNC(=S)Nc2ccccc2)c1 (stereo not drawn) [Compound 22, 3-{[2-(Phenylcarbamothioyl)hydrazinylidene]methyl}phenyl (2,4-dioxo-1,3-thiazolidin-5-yl)acetate]				209 to 211	81.6 ± 1.11 (≈ 190 µM)	IC50 [7]: 57.3 ± 1.19 µg/mL (≈ 134 µM); SI [IC50BJ/IC50], A549 [7]: 1.43; IC50 [6]: 48.3 ± 1.07 µg/mL (≈ 113 µM); SI [IC50BJ/IC50], HepG2 [6]: 1.69; IC50 [4]: 72 ± 1.1 µg/mL (≈ 168 µM); SI [IC50BJ/IC50], MCF-7 [4]: 1.13
O=C(CC1SC(=O)NC1=O)Oc1ccc(C=NNC(=S)Nc2ccccc2)cc1 (stereo not drawn) [Compound 25, 4-{[2-(Phenylcarbamothioyl)hydrazinylidene]methyl}phenyl (2,4-dioxo-1,3-thiazolidin-5-yl)acetate]	250	250	250	159 to 162		
COc1cc(C=NNC(=S)Nc2ccccc2)ccc1OC(=O)CC1SC(=O)NC1=O (stereo not drawn) [Compound 26, 2-Methoxy-4-{[2-(phenylcarbamothioyl)hydrazinylidene]methyl}phenyl (2,4-dioxo-1,3-thiazolidin-5-yl)acetate]				182 to 184		
O=C(C=C1SC(=O)NC1=O)Oc1ccc(C=NNC(=S)Nc2ccccc2)cc1 [Compound 27, 4-{[2-(Phenylcarbamothioyl)hydrazinylidene]methyl}phenyl (2,4-dioxo-1,3-thiazolidin-5-ylidene)acetate]	125	125	125	199 to 202		Minimal inhibitory concentration MIC, Staphylococcus aureus 25923 ([1]; 18 h): 125 µg/mL; Minimal inhibitory concentration MIC, Staphylococcus aureus MIKROBANK 14.001 [2]: 125 µg/mL; Minimal inhibitory concentration MIC, Staphylococcus epidermidis 12228 ([3]; 18 h): 125 µg/mL
COc1cc(C=NNC(=S)Nc2ccccc2)ccc1OC(=O)C=C1SC(=O)NC1=O [Compound 28, 2-Methoxy-4-{[2-(phenylcarbamothioyl)hydrazinylidene]methyl}phenyl (2,4-dioxo-1,3-thiazolidin-5-ylidene)acetate]	125	125	125	186 to 187		
CCc1c2c(nc3ccc(OC(=O)N4CCC(N5CCCCC5)CC4)cc13)-c1cc3c(c(=O)n1C2)COC(=O)[C@]3(O)CC [Irinotecan, irinotecan, reference compound]					38.7 ± 1.37 (≈ 65.9 µM)	IC50 [7]: 39.7 ± 1.2 µg/mL (≈ 67.7 µM); SI [IC50BJ/IC50], A549 [7]: 0.97; IC50 [6]: 14.8 ± 1.24 µg/mL (≈ 25.2 µM); SI [IC50BJ/IC50], HepG2 [6]: 2.62; IC50 [4]: 21.1 ± 1.23 µg/mL (≈ 35.9 µM); SI [IC50BJ/IC50], MCF-7 [4]: 1.84
